According to PubChem BioAssay AID330 (DTP/NCI, 2004):
“And” between values parts separate entries of the source, which are not always exact repeats. Equal entries are not always repeated. Inconclusive results and toxic doses are left out. Rule for the calls: active = survival T/C of 150% or more; inactive = T/C below 125% in these data.

System: P388 leukemia ip, CD2F1 mice, survival T/C
Assay: NCI In Vivo Anticancer Drug Screen. Data for tumor model P388 Leukemia (intraperitoneal) in CD2F1 (CDF1) mice
Details: endpoint: median survival time, higher = longer survival
Summary of the method: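 Mice carrying the transplanted tumor received test compound or vehicle. Survival was recorded in each group, and the value is the treated-group measurement divided by that of the vehicle-treated control group.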

[1] = dose: 50.0 mg/kg/injection, schedule: Q01DX009 (ip), vehicle: Klucel (hydroxypropylcellulose) (HPC)
[2] = dose: 100.0 mg/kg/injection, schedule: Q01DX009 (ip), vehicle: Klucel (hydroxypropylcellulose) (HPC)
[3] = dose: 200.0 mg/kg/injection, schedule: Q01DX009 (ip), vehicle: Klucel (hydroxypropylcellulose) (HPC)
[4] = dose: 50.0 mg/kg/injection, schedule: Q01DX005 (ip), vehicle: Klucel (hydroxypropylcellulose) (HPC)
[5] = dose: 100.0 mg/kg/injection, schedule: Q01DX005 (ip), vehicle: Klucel (hydroxypropylcellulose) (HPC)
[6] = dose: 50.0 mg/kg/injection, schedule: Q01DX005 (ip), vehicle: saline
[7] = dose: 50.0 mg/kg/injection, schedule: Q01DX009 (ip), vehicle: saline with Tween-80
[8] = dose: 60.0 mg/kg/injection, schedule: Q01DX005 (ip), vehicle: Klucel (hydroxypropylcellulose) (HPC)
[9] = dose: 120.0 mg/kg/injection, schedule: Q01DX005 (ip), vehicle: Klucel (hydroxypropylcellulose) (HPC)
[10] = dose: 200.0 mg/kg/injection, schedule: Q01DX005 (ip), vehicle: Klucel (hydroxypropylcellulose) (HPC)
[11] = dose: 50.0 mg/kg/injection, schedule: Q01DX005 (ip), vehicle: saline with Tween-80
[12] = dose: 100.0 mg/kg/injection, schedule: Q01DX005 (ip), vehicle: saline with Tween-80
[13] = dose: 100.0 mg/kg/injection, schedule: Q01DX005 (ip), vehicle: saline
[14] = dose: 200.0 mg/kg/injection, schedule: Q01DX005 (ip), vehicle: saline with Tween-80
[15] = dose: 200.0 mg/kg/injection, schedule: Q01DX005 (ip), vehicle: saline
[16] = dose: 100.0 mg/kg/injection, schedule: Q01DX009 (ip), vehicle: saline with Tween-80
[17] = dose: 200.0 mg/kg/injection, schedule: Q01DX009 (ip), vehicle: saline with Tween-80

Measured: T/C

O=[N+]([O-])c1cc(S(=O)(=O)c2ccc(F)c([N+](=O)[O-])c2)ccc1F
inactive: dose: 3.12 mg/kg/injection, schedule: Q01DX009 (ip), vehicle: Klucel (hydroxypropylcellulose) (HPC) 102 % of control | dose: 6.25 mg/kg/injection, schedule: Q01DX009 (ip), vehicle: Klucel (hydroxypropylcellulose) (HPC) 108 % of control | dose: 12.5 mg/kg/injection, schedule: Q01DX009 (ip), vehicle: Klucel (hydroxypropylcellulose) (HPC) 114 % of control | dose: 25.0 mg/kg/injection, schedule: Q01DX009 (ip), vehicle: Klucel (hydroxypropylcellulose) (HPC) 108 % of control

COc1ccc2c(c1)CCc1nc3n(c1-2)C(O)(c1ccccc1)C(CC(=O)O)S3 (stereo not given)
inactive: [1] 94 % of control | [2] 105 % of control | [3] 103 % of control

CC(=O)OC1COC(n2cnc3c(Cl)nc(Cl)nc32)C(OC(C)=O)C1OC(C)=O (stereo not given)
inactive: [4] 107 % of control | [5] 108 % of control

CCN(CC)CC(C)(O)CNc1cc(OC)cc2cccnc12 (stereo not given)
inactive: dose: 12.5 mg/kg/injection, schedule: Q01DX005 (ip), vehicle: saline 97 % of control | dose: 25.0 mg/kg/injection, schedule: Q01DX005 (ip), vehicle: saline 101 % of control | [6] 93 % of control and 94 % of control

CCNCc1c(C)nc2ccc(N(C)C)cc2c1Cl
inactive: dose: 12.5 mg/kg/injection, schedule: Q01DX009 (ip), vehicle: saline with Tween-80 91 % of control | dose: 25.0 mg/kg/injection, schedule: Q01DX009 (ip), vehicle: saline with Tween-80 104 % of control | [7] 88 % of control

CC(=O)OCN(C)N=Nc1ccc(C(C)=O)cc1
inactive: [8] 106 % of control and 114 % of control and 118 % of control | [9] 100 % of control and 109 % of control and 124 % of control | dose: 480.0 mg/kg/injection, schedule: Q01DX005 (ip), vehicle: Klucel (hydroxypropylcellulose) (HPC) 108 % of control

COC(=O)c1cc(=O)n(C)[nH]1
inactive: [4] 104 % of control | [5] 105 % of control | [10] 98 % of control

CC1NC(=O)N(C(C)(C)C)C1=O (stereo not given)
inactive: [11] 111 % of control | [6] 101 % of control | [12] 111 % of control | [13] 100 % of control | [14] 120 % of control | [15] 102 % of control and 107 % of control

CCN(Cc1cccc(S(=O)(=O)O)c1)c1ccc(C(=C2C=CC(=[N+](CC)Cc3cccc(S(=O)(=O)O)c3)C=C2)c2ccccc2)cc1
inactive: [6] 107 % of control | [13] 110 % of control | [15] 115 % of control

CC(=O)Nc1ccc(OCCOC(=O)Nc2ccc(C)cc2[N+](=O)[O-])cc1
inactive: [1] 88 % of control

Cc1cc2nc(NN=O)sc2cc1C
inactive: dose: 3.12 mg/kg/injection, schedule: Q01DX009 (ip), vehicle: water 109 % of control | dose: 6.25 mg/kg/injection, schedule: Q01DX009 (ip), vehicle: water 97 % of control | dose: 12.5 mg/kg/injection, schedule: Q01DX009 (ip), vehicle: water 106 % of control | dose: 25.0 mg/kg/injection, schedule: Q01DX009 (ip), vehicle: water 104 % of control (2×) and 97 % of control | dose: 50.0 mg/kg/injection, schedule: Q01DX009 (ip), vehicle: water 102 % of control and 103 % of control and 108 % of control | dose: 100.0 mg/kg/injection, schedule: Q01DX009 (ip), vehicle: water 123 % of control

C[N+](C)(C)CCOC(=O)CCC(=O)OCC[N+](C)(C)C
inactive: dose: 312.0 micrograms/kg/injection, schedule: Q01DX009 (ip), vehicle: saline 104 % of control | dose: 625.0 micrograms/kg/injection, schedule: Q01DX009 (ip), vehicle: saline 90 % of control | dose: 1250.0 micrograms/kg/injection, schedule: Q01DX009 (ip), vehicle: saline 109 % of control

c1cnc2nc3c4ccccc4c4ccccc4c3nc2c1
inactive: [7] 104 % of control and 94 % of control | [16] 104 % of control and 122 % of control and 93 % of control | [17] 101 % of control and 110 % of control and 86 % of control

CCCCCCCCCCCCCCCCCN1CCS(=O)(=O)CC1
inactive: [1] 100 % of control | [2] 94 % of control | [3] 88 % of control

CC(Br)CCc1ccccc1Br (stereo not given)
inactive: [4] 101 % of control | [5] 93 % of control | [10] 97 % of control

CCOC1(C)CC(c2cc(OC)c(OC)c(OC)c2)c2cc3c(cc2O1)OCO3 (stereo not given)
inactive: [8] 96 % of control | [9] 93 % of control | dose: 240.0 mg/kg/injection, schedule: Q01DX005 (ip), vehicle: Klucel (hydroxypropylcellulose) (HPC) 92 % of control

CN1Cc2ccccc2[C@H]2C(c3ccccc3)=NN(c3ccccc3)[C@H]21
inactive: [11] 103 % of control | [12] 94 % of control | [14] 92 % of control

COc1cc2nc3occc3c(OC)c2cc1OCC(O)C(C)(C)O (stereo not given)
inactive: dose: 12.5 mg/kg/injection, schedule: Q01DX005 (ip), vehicle: distilled water + Tween-80 91 % of control | dose: 25.0 mg/kg/injection, schedule: Q01DX005 (ip), vehicle: distilled water + Tween-80 98 % of control

CCCCCCCCCCCCCCCCCC(=O)[O][Sn]([CH2]CCC)([CH2]CCC)[O]C(=O)CCCCCCCCCCCCCCCCC
inactive: dose: 2.66 mg/kg/injection, schedule: Q04DX003 (ip), vehicle: other 109 % of control | dose: 4.0 mg/kg/injection, schedule: Q04DX003 (ip), vehicle: other 106 % of control | dose: 6.0 mg/kg/injection, schedule: Q04DX003 (ip), vehicle: other 109 % of control | dose: 9.0 mg/kg/injection, schedule: Q04DX003 (ip), vehicle: other 110 % of control

Cc1cc(O)c(N=Nc2ccc(C(=O)O)cc2)cc1C
inactive: [16] 100 % of control | dose: 100.0 mg/kg/injection, schedule: Q04DX003 (ip), vehicle: saline with Tween-80 90 % of control | [17] 95 % of control | dose: 400.0 mg/kg/injection, schedule: Q01DX009 (ip), vehicle: saline with Tween-80 95 % of control | dose: 400.0 mg/kg/injection, schedule: Q04DX003 (ip), vehicle: saline with Tween-80 90 % of control

CN(C)CCC(=O)c1ccc2c(c1)OCO2
inactive: dose: 60.0 mg/kg/injection, schedule: Q01DX005 (ip), vehicle: saline 100 % of control | dose: 120.0 mg/kg/injection, schedule: Q01DX005 (ip), vehicle: saline 92 % of control

CCCCC(CC)C(=O)NCCCN(C)C (stereo not given)
inactive: [6] 99 % of control | [13] 99 % of control | [15] 94 % of control

COc1cc(Br)c(C2=C3c4cc(OC)c(OC)cc4CCN3C(=O)C2=O)cc1OC
inactive: [4] 99 % of control | [5] 93 % of control | [10] 90 % of control

NC(=O)NC(c1ccccc1)C(O)(c1ccccc1)c1ccccc1 (stereo not given)
inactive: [7] 87 % of control | [16] 93 % of control | [17] 96 % of control

COc1cc(/C=C/C(=O)NCCc2ccc(OCc3ccccc3)c(OC)c2)ccc1OCc1ccccc1
inactive: dose: 100.0 mg/kg/injection, schedule: Q01DX001 (ip), vehicle: saline with Tween-80 88 % of control | dose: 200.0 mg/kg/injection, schedule: Q01DX001 (ip), vehicle: saline with Tween-80 89 % of control | dose: 400.0 mg/kg/injection, schedule: Q01DX001 (ip), vehicle: saline with Tween-80 90 % of control
